US20220241308A1, “NEURONAL FUNCTION MODULATING AGENT” (University of Tsukuba, priority 2019, published 2022)

How the values were obtained:
[1] = test system: SH-SY5Y cells; assay: Cell survival experiment (MTT), cell death induced by amyloid β protein; format: cell-based; conditions: compound 12.56 μM, 72 h, compared to “Aβ”
Procedure: Each well of a 96-well plate (BD Biocoat) was seeded with SH-SY5Y cells (model of neuronal cells, ATCC) at a concentration of 2×10^5 cells/mL (100 μL/well) and the cells were cultured at 37° C. and 5% CO2 for 24 h. Culture medium used was F12/DMEM (Gibco) supplemented with 1% non-essential amino acids (Gibco), 15% FBS (Bio West), and 1% penicillin/streptomycin (Lonza).
After 24 h, the culture medium was completely removed with an aspirator, 100 μL of culture medium Opti-MEM (Gibco) was added to each well, and the cells were cultured at 37° C. and 5% CO2 for 24 h. […]
Absorbance at 570 nm was measured on a microplate reader (Sumitomo Dainippon Pharma) to measure the MTT formazan production to calculate % relative cell survival (designated as “Control” in FIG. 1).
24 h after seeding a 96-well plate (BD Biocoat) with SH-SY5Y cells, the culture medium was completely removed with an aspirator, amyloid β protein (Beta-Amyloid 1-42, AnaSpec) was mixed with Opti-MEM (Gibco) so that the final concentration was 15 μM, 100 μL of the mixture was added to each well, and the cells were cultured at 37° C. and 5% CO2 for 72 h to induce cell death. Except for performing the procedure described above, the MTT formazan production was measured as described above to calculate % relative cell survival (designated as “Aβ” in FIG. 1). […]

[2] = test system: senescence-accelerated mice (SAMP8); assay: Animal experiment: Morris water maze test (platform test, probe test); format: in vivo; conditions: SAMP8, oral, 30 days, 2.17 mg malvidin-3,5-diglucoside/kg/day
Procedure: Mice and administration regimens used in the experiment are as described below. Breeding conditions are common to all groups.
Compound (M3,5G)-treated (SAMP8) group: Sample 5 was orally administered to 10 senescence-accelerated mice (SAMP8) (16 weeks old, weighing 28-30 g, Japan SLC, Inc.) for a period of 30 days at a daily dose of 2.17 mg of malvidin-3,5-diglucoside per kg of mouse body weight (designated as “Senescence-accelerated mice+Compound (M3,5G)” in FIGS. 11 to 13).
Extract-treated (SAMP8) group: Sample 4 was orally administered to 10 senescence-accelerated mice (SAMP8) (16 weeks old, weighing 28-30 g, Japan SLC, Inc.) for a period of 30 days at a daily dose of 25 mg of extract powder (2.17 mg of malvidin-3,5-diglucoside in […]) per kg of mouse body weight (designated as “Senescence-accelerated mice+Extract” in FIGS. 11 to 13). […]
Mice were released into the pool and the time taken for the mice to arrive at the platform was measured. […]
On the last day of the test, the platform was removed from the pool and the mice were again released into the pool. The number of times the mouse crossed the former platform location was counted and the time the mouse spent on the former platform location was measured.

## COc1cc(-c2[o+]c3cc(O)cc(OC4OC(CO)C(O)C(O)C4O)c3cc2OC2OC(CO)C(O)C(O)C2O)cc(OC)c1O (centres unmarked) [M3,5G, Malvidin-3,5-diglucoside chloride]
[1]
  % relative cell survival: significantly high
[2]
  learn and memory ability of animals: improvements
